Active and inactive are the calls of the source.
Tests used:
[1] = biological target: Nonstructural protein 1 (Influenza A virus, UniProt Q194T2); assay type: functional, Influenza A virus (A/California/07/2009(H1N1))
[2] = test system: INS1; test: INS-1E survival protection against cytokine death – cell-based, luminescence, retest, dose response (AID 449756); assay type: functional; details: Rattus norvegicus;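 note: cell death triggered by IL-1 beta plus TNF-alpha plus IFN-gamma mixture; protective hits raise ATP signal compared with cytokine alone wells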
[3] = biological target: T1, Polyadenylate-binding protein 1 (Homo sapiens, UniProt P11940); test: MLLE binding blockers, Cy5 peptide tracer – biochemical, fluorescence polarization, Cy5-PAM2 peptide, secondary, miRNA deadenylation inhibitor project, dose response (AID 602260); assay type: functional; details: read-out: IC50_Mean
T1 sequence (P11940 whole entry, the tested form may be a part): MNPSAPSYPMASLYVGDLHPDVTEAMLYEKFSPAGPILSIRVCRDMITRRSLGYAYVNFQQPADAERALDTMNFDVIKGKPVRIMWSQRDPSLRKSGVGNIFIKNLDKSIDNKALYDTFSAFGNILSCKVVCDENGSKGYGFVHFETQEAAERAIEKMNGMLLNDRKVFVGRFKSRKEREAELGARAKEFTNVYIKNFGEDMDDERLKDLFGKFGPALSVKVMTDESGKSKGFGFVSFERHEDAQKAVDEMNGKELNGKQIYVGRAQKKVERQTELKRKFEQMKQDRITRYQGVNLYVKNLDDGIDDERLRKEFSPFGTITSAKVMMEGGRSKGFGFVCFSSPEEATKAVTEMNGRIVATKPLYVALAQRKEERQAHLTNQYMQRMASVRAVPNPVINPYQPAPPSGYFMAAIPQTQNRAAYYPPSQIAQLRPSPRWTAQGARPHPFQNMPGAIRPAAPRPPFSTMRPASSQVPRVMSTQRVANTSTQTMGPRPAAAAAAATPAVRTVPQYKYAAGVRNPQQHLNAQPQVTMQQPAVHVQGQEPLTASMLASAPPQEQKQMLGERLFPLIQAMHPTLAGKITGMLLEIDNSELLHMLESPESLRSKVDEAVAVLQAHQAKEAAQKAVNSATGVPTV

[4] = biological target: T1, Polyadenylate-binding protein 1; test: MLLE domain peptide-binding blockers, IC50 – biochemical, fluorescence polarization, FITC-PAM2 peptide, dose response (AID 602259); assay type: functional; details: read-out: IC50_Mean
[5] = NIH-3T3 fibroblast cytotoxicity, dose response, cytotoxicity control, cell-based, fluorescence, Alamar Blue, secondary assay (AID 2327); assay type: functional;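 note: NIH-3T3 mouse fibroblasts cultured with fluconazole at 8 µg/mL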
[6] = fluconazole-exposed Candida albicans growth modulators – fluorescence, retest, confirmation (AID 2467); assay type: functional, cell-based
[7] = test system: HEK293; test: cells; details: Homo sapiens
[8] = test system: HEK293; test: cells; details: Homo sapiens; remark: listed apart in the source
[9] = biological target: T2, Aminopeptidase N (Plasmodium falciparum FcB1/Columbia, UniProt O96935); test: malaria alanyl aminopeptidase activity blockers – biochemical, fluorogenic H-Leu-NHMec substrate, 1536-well (AID 1445); set-up: species or system Plasmodium falciparum 3D7, 3D7
T2 sequence (O96935 whole entry): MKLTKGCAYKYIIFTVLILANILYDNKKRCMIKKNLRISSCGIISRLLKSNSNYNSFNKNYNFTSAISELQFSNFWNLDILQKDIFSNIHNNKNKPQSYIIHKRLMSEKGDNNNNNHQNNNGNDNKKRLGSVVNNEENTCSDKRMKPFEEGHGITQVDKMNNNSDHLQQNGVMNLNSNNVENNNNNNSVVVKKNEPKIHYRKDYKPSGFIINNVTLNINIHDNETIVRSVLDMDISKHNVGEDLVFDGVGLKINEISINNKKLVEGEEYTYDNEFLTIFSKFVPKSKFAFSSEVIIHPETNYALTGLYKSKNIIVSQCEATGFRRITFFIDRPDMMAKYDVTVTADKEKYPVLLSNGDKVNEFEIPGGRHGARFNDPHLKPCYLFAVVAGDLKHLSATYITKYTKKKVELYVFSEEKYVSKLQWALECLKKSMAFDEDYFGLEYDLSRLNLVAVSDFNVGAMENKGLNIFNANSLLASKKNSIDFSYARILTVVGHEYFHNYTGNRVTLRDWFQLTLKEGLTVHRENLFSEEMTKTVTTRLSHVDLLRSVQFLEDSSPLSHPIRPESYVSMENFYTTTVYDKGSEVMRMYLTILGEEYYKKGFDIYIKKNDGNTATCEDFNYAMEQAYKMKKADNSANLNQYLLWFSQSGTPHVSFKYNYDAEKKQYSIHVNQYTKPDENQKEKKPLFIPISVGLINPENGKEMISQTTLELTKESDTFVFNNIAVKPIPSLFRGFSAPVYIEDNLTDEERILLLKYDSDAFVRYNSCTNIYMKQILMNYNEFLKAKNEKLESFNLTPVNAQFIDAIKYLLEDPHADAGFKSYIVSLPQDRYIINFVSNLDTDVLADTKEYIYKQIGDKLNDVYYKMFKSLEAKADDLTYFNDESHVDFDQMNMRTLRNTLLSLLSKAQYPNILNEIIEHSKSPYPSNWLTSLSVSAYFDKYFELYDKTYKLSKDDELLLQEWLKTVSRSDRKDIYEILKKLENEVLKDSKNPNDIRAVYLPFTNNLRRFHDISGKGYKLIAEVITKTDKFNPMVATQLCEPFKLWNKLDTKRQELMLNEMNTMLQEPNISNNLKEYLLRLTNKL

[10] = biological target: T3, Short transient receptor potential channel 4 (Mus musculus, UniProt Q9QUQ5); test: calcium entry via TRPC4 opening agents – cell-based, HEK293 TRPC4/mu-opioid, Fluo-4 calcium, dose response (AID 434937); assay type: functional
T3 sequence (Q9QUQ5 whole entry): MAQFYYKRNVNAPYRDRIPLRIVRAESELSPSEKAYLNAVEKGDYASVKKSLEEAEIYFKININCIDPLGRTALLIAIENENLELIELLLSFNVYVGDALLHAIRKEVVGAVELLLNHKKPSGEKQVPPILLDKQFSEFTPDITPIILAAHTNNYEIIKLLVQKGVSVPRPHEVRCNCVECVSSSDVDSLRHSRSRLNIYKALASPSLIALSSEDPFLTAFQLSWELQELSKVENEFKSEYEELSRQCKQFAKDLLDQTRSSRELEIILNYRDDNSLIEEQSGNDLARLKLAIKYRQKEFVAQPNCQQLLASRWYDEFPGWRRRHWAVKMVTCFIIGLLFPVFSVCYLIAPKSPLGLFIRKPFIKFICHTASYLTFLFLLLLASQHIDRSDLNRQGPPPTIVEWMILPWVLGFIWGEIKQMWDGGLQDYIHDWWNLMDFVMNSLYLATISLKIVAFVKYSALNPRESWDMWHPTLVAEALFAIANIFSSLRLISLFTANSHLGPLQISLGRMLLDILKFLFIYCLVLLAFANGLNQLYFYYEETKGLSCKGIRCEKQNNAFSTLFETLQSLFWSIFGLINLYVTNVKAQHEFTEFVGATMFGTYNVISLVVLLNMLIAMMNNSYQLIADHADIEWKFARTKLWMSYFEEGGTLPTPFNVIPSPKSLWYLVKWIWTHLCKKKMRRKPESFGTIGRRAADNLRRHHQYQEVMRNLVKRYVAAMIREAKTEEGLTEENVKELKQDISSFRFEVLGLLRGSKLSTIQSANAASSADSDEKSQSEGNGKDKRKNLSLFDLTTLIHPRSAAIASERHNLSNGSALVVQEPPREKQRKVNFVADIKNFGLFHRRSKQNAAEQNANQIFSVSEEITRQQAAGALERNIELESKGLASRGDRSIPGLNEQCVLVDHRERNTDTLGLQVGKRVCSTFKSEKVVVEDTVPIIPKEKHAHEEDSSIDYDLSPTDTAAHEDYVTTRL

[11] = cells; assay type: functional, cell-based
[12] = cells; assay type: functional, cell-based; remark: listed apart in the source
[13] = biological target: T4, Sentrin-specific protease 7 (Homo sapiens, UniProt Q9BQF6); assay type: functional;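 note: Luminescence-based dose-response confirmation of ultra-high-throughput screening hits, measuring inhibition of SENP7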
T4 sequence (Q9BQF6 whole entry): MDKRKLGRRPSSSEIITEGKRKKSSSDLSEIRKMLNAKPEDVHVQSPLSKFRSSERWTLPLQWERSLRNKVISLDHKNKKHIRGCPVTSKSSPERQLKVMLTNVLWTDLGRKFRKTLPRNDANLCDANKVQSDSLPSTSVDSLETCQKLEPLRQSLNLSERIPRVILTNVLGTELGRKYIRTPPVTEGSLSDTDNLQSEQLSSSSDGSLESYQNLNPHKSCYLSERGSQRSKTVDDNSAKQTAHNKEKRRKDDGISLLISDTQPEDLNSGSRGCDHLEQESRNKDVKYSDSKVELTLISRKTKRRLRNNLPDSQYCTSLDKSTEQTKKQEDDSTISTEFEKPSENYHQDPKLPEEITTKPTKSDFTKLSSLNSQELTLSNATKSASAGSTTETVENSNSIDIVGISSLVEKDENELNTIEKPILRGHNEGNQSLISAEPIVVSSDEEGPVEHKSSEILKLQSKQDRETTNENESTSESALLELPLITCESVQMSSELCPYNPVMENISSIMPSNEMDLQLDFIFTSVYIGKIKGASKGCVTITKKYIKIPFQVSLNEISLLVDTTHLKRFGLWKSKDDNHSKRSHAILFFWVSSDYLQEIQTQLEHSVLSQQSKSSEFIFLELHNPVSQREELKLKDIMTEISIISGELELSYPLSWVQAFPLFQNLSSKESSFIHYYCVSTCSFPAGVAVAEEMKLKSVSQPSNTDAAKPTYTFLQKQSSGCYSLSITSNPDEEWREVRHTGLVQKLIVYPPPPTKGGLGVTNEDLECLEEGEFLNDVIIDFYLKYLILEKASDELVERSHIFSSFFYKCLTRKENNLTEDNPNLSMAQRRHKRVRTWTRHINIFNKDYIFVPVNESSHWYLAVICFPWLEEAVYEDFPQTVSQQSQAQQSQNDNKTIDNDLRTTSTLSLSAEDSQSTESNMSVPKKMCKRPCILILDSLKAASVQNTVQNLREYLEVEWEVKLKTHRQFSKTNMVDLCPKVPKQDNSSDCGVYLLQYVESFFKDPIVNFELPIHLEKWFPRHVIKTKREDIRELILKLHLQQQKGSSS

[14] = biological target: T5, Sentrin-specific protease 6 (Homo sapiens, UniProt Q9GZR1); assay type: functional;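 note: Luminescence-based dose-response confirmatory assay of SENP6 inhibition, following up an ultra-high-throughput screen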
T5 sequence (Q9GZR1 whole entry): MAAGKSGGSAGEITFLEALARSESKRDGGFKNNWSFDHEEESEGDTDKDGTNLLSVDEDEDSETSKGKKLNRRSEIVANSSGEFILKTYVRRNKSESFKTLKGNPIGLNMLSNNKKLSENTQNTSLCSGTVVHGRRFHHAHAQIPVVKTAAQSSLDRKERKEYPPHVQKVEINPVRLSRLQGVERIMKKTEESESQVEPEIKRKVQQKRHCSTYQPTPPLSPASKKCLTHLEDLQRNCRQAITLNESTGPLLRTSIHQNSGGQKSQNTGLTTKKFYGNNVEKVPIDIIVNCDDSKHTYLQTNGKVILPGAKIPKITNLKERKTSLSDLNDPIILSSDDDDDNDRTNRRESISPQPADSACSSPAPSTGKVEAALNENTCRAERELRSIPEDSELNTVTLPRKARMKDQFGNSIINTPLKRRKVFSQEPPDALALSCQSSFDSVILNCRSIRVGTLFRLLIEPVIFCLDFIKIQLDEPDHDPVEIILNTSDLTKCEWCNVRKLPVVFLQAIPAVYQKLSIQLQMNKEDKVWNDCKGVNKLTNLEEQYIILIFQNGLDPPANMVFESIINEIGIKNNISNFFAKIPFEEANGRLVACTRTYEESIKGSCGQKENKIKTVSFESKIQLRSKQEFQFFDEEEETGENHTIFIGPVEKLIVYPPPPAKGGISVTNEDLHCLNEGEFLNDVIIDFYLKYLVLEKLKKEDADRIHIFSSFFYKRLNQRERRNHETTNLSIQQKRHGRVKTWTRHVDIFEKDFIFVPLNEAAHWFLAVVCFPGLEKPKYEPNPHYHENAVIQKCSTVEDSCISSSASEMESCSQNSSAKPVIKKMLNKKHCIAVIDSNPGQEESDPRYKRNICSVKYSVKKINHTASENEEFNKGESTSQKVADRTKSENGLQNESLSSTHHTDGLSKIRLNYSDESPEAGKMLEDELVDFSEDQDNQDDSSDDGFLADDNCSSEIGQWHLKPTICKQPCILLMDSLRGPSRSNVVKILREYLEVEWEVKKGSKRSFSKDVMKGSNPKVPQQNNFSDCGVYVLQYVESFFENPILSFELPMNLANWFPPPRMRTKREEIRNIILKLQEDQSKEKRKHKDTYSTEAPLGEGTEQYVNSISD

[15] = biological target: T6, Sentrin-specific protease 8 (Homo sapiens, UniProt Q96LD8); assay type: functional;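 note: luminescence read-out of SENP8 inhibition, dose-response confirmation following an ultra-high-throughput screen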
T6 sequence (Q96LD8 whole entry): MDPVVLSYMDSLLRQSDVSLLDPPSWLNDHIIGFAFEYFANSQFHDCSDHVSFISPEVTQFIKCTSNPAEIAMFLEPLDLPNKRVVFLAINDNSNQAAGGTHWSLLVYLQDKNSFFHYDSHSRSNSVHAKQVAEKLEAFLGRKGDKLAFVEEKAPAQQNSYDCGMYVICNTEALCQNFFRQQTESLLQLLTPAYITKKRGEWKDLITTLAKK

Chain of Nonstructural protein 1 (Q194T2 whole entry): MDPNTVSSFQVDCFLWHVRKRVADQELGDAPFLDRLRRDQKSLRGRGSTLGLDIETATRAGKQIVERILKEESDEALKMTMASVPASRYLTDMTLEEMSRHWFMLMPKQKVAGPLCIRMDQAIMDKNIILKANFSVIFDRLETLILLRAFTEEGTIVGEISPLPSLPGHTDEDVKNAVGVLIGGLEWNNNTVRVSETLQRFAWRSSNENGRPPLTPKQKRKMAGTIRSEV

In the case of `COc1ccc(O)c(/C=N/NC(=S)Nc2cccnc2)c1`, the IC50 [1] was 3.04 µM (active), the AC50 [2] was 1.56 µM (active) and the IC50 [3] was > 66 µM (inactive). The IC50 [4] was > 66 µM (inactive).

In the case of `Fc1cccc(-n2cc(-c3ccccc3)c3c(S)ncnc32)c1`, the EC50 [5] was > 150 µM (inactive), the EC50 [6] was 8.62 µM (active) and the EC50 [7] was > 59.6 µM (inactive). For the same compound, the EC50 [8] was > 59.6 µM (inactive).

In the case of `CCCCN(CC)C(=O)CSc1nc2c(sc(=S)n2-c2ccc(OCC)cc2)c(=O)[nH]1`, the IC50 [9] was 38.8 µM (active).

With `OCCNCCSc1ccc(Cl)cc1` the EC50 [10] was 1.5 µM (active).

In the case of `O=C(O)C(Cc1ccccc1)/N=C/c1c(O)oc2ccccc2c1=O` (stereo not given), the IC50 [9] was 20.6 µM (active).

With `COC(=O)C1=C(C)N(C)C(=O)NC1c1cc(Cl)c(O)c(OC)c1` (stereo not given) the EC50 [11] was > 350 µM (not active), the EC50 [12] was > 350 µM (not active) and the EC50 [7] was > 59.6 µM (inactive). The EC50 [8] was > 59.6 µM (inactive).

In the case of `CN(C)C(CNC(=O)CSc1nc2sc3c(c2c(=O)n1C)CCCC3)c1ccccc1` (stereo not given), the EC50 [7] was > 59.6 µM (inactive) and the EC50 [8] was > 59.6 µM (inactive).

With `COc1ccc(CCN(C)c2ccc(S(=O)(=O)N3CCCC3)cc2[N+](=O)[O-])cc1OC` the EC50 [7] was > 59.7 µM (inactive) and the EC50 [8] was > 59.7 µM (inactive).

For `CC1(C)OC(c2ccccc2)=C/C(=C/C=C2C(=O)c3ccccc3C2=O)O1`, the IC50 [1] was 6.6 µM (active).

In the case of `COc1cccc(CN2CCNC(=O)C2CC(=O)N(C)CCc2ccccn2)c1` (stereo not given), the EC50 [10] was 4.73 µM (active).

With `Cc1ccc(S(=O)(=O)N(C)C)cc1NC(=O)Nc1c(-c2ccccc2)noc1C` the IC50 [9] was 12.9 µM (active).

With `COc1ccc(C(N)=NOC(=O)CSc2ccccc2)cc1` the IC50 [13] was 5.98 µM (active), the IC50 [14] was 28 µM (active) and the IC50 [15] was 12.8 µM (active).
